Data from US20230339863A1, “INDAZOLE DERIVATIVES AS CANNABINOID RECEPTOR PARTIAL AGONISTS” (RESEARCH TRIANGLE INSTITUTE, priority 2020, published 2023).
pEC50, pKi: −log10 of the molar value.

Experiments:
human CB2 [1] = target: T1, human CB2 (Homo sapiens (Human), UniProt P34972); experiment: In vitro binding affinity, [3H]CP-55,940 radioligand displacement, HEK cell membranes overexpressing human CB2; conditions: [3H]CP-55,940 displacement, read-out: hCB2 Ki
Procedure: (§1) In vitro binding affinity determination using radioligand displacement. Plasma membranes were isolated from HEK cells overexpressing either human CB1 or CB2. Binding was initiated with the addition of 40 μg of cell membrane proteins to assay tubes containing [3H]CP-55,940 (ca. 130 Ci/mmol), a test compound (for displacement studies), and a sufficient quantity of buffer (50 mM Tris-HCl, 1 mM EDTA, 3 mM MgCl2, 5 mg/mL BSA, pH 7.4) to bring the total incubation volume to 0.5 mL. Nonspecific binding was determined by the inclusion of 10 μM unlabeled CP-55,940. Following incubation at 30° C. for 1 h, binding was terminated by vacuum filtration through GF/C glass fiber filter plates. The filter plates were washed extensively and air-dried and sealed on the bottom. Liquid scintillate was added to the wells and the top sealed. After incubating the plates in cocktail for at least 2 h, the radioactivity present was determined by liquid scintillation spectrometry. Assays were done in duplicate, and results represent combined data from 3-6 experiments. Saturation and displacement data were analyzed by unweighted nonlinear regression of receptor binding data. For displacement studies, curve-fitting and IC50 calculation were done with GraphPad Prism (GraphPad Software, Inc., San Diego, CA).
(§2) Reference is made to the following reference, hereby incorporated by reference with regard to such assay, Zhang et al., Synthesis and biological evaluation of bivalent ligands for the cannabinoid 1 receptor, J Med Chem. 2010 Oct. 14; 53 (19):7048-60. doi: 10.1021/jm1006676.

human CB2 [2] = target: T1, human CB2; experiment: In vitro cannabinoid receptor activity assay (calcium mobilization, FLIPR) in CHO cells expressing human CB2 and Gαq16; type: cell-based; conditions: for pEC50: CHO cells, hCB2, calcium fluorescence, read-out: hCB2 Ca EC50; for hCB2 Ca Span: percentage of the maximum CP55940 signal
Procedure: (§3) In vitro cannabinoid receptor activity assay. Chinese Hamster Ovary (CHO) cells stably expressing either human CB1 or CB2 cDNA and the promiscuous G-protein Gαq16 were transferred to each well of a black Costar 96-well optical bottom plate (Corning Corporation). Each plate was incubated at 37° C. for 24 hr to confluence. The culture media was removed from the plates and cells were subsequently loaded with a fluorescent calcium probe (Calcium 5 dye, Molecular Devices) at a final loading concentration of 2 μM in a HBSS-based buffer containing 20 mM HEPES, 1% BSA and 10 μM Probenecid (Sigma) in a total volume of 225 μl. Cells were incubated at 37° C. for 1 hr and then stimulated with various concentrations of a test agent using a FLIPR Tetra plate-reader, which automatically added the agonist at 10× concentration to each well after reading baseline values for ˜17 sec. Agonist-mediated change in fluorescence (488 nm excitation, 525 nm emission) was monitored in each well at 1 sec intervals for 60 sec and reported for each well. Data were analyzed using Prism software (GraphPad). Non-linear regression analysis was performed to fit data and obtain maximum response (Emax), effective concentration for 50% response (EC50), correlation coefficient (r2) and other parameters. All experiments were performed 3-6 times to ensure reproducibility.
(§4) Reference is made to the following reference, hereby incorporated by reference with regard to such assay, Seltzman, et al., Peripherally Selective Cannabinoid 1 Receptor (CB1R) Agonists for the Treatment of Neuropathic Pain, J Med Chem. 2016 Aug. 25; 59 (16):7525-43. doi: 10.1021/acs.jmedchem.6b00516. Epub 2016 Aug. 10.

human CB1 [3] = target: T2, human CB1 (Homo sapiens (Human), UniProt P21554); experiment: In vitro binding affinity, [3H]CP-55,940 radioligand displacement, HEK cell membranes overexpressing human CB1; conditions: [3H]CP-55,940 displacement, read-out: hCB1 Ki
Procedure: as §1, §2

human CB1 [4] = target: T2, human CB1; experiment: In vitro cannabinoid receptor activity assay (calcium mobilization, FLIPR) in CHO cells expressing human CB1 and Gαq16; type: cell-based; conditions: for pEC50: CHO cells, hCB1, calcium fluorescence, read-out: hCB1 Ca EC50; for hCB1 Ca Span: percentage of the maximum CP55940 signal
Procedure: as §3, §4

Structure (SMILES)	pKi (human CB2 [1])	pEC50 (human CB2 [2])	hCB2 Ca Span (human CB2 [2])	pKi (human CB1 [3])	pEC50 (human CB1 [4])	hCB1 Ca Span (human CB1 [4])
C[C@H](NC(=O)c1nn(Cc2ccc(F)cc2)c2ccccc12)c1cccc(C(N)=O)c1 [Example 11, N-[(1S)-1-(3-Carbamoylphenyl)ethyl]-1-[(4-fluorophenyl)methyl]-1H-indazole-3-carboxamide]	7.47	7.30	48%	8.15	7.57	86%
CC(C)(NC(=O)c1nn(Cc2ccc(F)cc2)c2ccccc12)c1cccc(C(N)=O)c1 [Example 12, N-[2-(3-Carbamoylphenyl)propan-2-yl]-1-[(4-fluorophenyl)methyl]-1H-indazole-3-carboxamide]	8.00	7.57	41%	8.40	7.68	24%
CC(C)(NC(=O)c1nn(Cc2ccc(F)cc2)c2ccccc12)C1CCCN(CC(N)=O)C1 (stereo not drawn) [Example 30, N-{2-[1-(Carbamoylmethyl)piperidin-3-yl]propan-2-yl}-1-[(4-fluorophenyl)methyl]-1H-indazole-3-carboxamide]	7.68	7.20	12%	7.32	6.48	40%
CC(C)(NC(=O)c1nn(Cc2ccc(F)cc2F)c2ccccc12)c1cccc(C(N)=O)c1 [Example 13, N-[2-(3-Carbamoylphenyl)propan-2-yl]-1-[(2,4-difluorophenyl)methyl]-1H-indazole-3-carboxamide]	7.57	6.52	19%	7.74	6.74	32%
